Test results published in BindingDB's records for patent US12522634 (Farsight Medical Technology (Shanghai), 2026).
Starred links: 1 amine or outer side, 2 acyl side, 3 side chain; linkers in the order of their positions; H or OH if unused. Non-standard residues stand in square brackets, D forms with d. Residues, ends and D or L forms follow the SMILES beside them. MeBmt = C/C=C/C[C@@H](C)[C@@H](O)[C@H](NC)C(=O)O; X1 = CN([C@H](OCCN1CCOCC1)C(=O)[*:2])[*:1]; X2 = CN(C)CCO[C@H](C(=O)[*:2])N(C)[*:1]; NMeL = CN[C@@H](CC(C)C)C(=O)O; NMeV = CN[C@H](C(=O)O)C(C)C; Nva = CCC[C@H](N)C(=O)O

How the values were obtained:
[1] = target: Peptidyl-prolyl cis-trans isomerase F, mitochondrial (Human, UniProt P30405); assay: Cyclophilin Peptidyl-Prolyl Isomerase Functional Assay
Sequence of Peptidyl-prolyl cis-trans isomerase F, mitochondrial (P30405 whole entry): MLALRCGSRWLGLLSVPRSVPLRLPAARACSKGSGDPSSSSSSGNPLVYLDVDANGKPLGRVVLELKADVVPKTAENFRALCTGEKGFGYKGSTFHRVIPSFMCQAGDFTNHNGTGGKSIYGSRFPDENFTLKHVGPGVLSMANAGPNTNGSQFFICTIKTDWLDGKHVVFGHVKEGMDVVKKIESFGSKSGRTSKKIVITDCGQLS

[2] = target: Peptidyl-prolyl cis-trans isomerase A (Homo sapiens, UniProt P62937); assay: as above
Sequence of Peptidyl-prolyl cis-trans isomerase A (P62937 whole entry): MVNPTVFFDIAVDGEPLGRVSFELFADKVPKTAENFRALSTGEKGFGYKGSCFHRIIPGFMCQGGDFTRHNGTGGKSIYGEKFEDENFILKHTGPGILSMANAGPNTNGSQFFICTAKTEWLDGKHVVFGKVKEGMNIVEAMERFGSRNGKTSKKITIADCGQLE

Row | Ki [1] [nM] | Ki [2] [nM] | Compound
1 | 5.1 | – | C/C=C/C[C@@H](C)[C@@H](O)[C@H]1C(=O)N[C@@H](C(C)C)C(=O)N(C)[C@H](OCCN(C)C)C(=O)N(C)[C@@H](CC(C)C)C(=O)N[C@@H](C(C)C)C(=O)N(C)[C@@H](CC(C)C)C(=O)N[C@@H](C)C(=O)N[C@H](C)C(=O)N(C)[C@@H](CC(C)C)C(=O)N(C)[C@@H](CC(C)C)C(=O)N(C)[C@@H](C(C)C)C(=O)N1C [US12522634, Compound 3] (cyclo(A[dA][NMeL][NMeL][NMeV][MeBmt]V[X2][NMeL]V[NMeL]))
2 | 35 | 39 | C/C=C/C[C@@H](C)[C@@H](O)[C@H]1C(=O)N[C@@H](CCC)C(=O)N(C)[C@H](OCCN2CCOCC2)C(=O)N(C)[C@@H](CC(C)C)C(=O)N[C@@H](C(C)C)C(=O)N(C)[C@@H](CC(C)C)C(=O)N[C@@H](C)C(=O)N[C@H](C)C(=O)N(C)[C@@H](CC(C)C)C(=O)N(C)[C@@H](CC(C)C)C(=O)N(C)[C@@H](C(C)C)C(=O)N1C [US12522634, Compound 8] (cyclo(A[dA][NMeL][NMeL][NMeV][MeBmt][Nva][X1][NMeL]V[NMeL]))
3 | 5.9 | 9.4 | C/C=C/C[C@@H](C)[C@@H](O)[C@H]1C(=O)N[C@@H](CCC)C(=O)N(C)[C@H](OCCN(C)C)C(=O)N(C)[C@@H](CC(C)C)C(=O)N[C@@H](C(C)C)C(=O)N(C)[C@@H](CC(C)C)C(=O)N[C@@H](C)C(=O)N[C@H](C)C(=O)N(C)[C@@H](CC(C)C)C(=O)N(C)[C@@H](CC(C)C)C(=O)N(C)[C@@H](C(C)C)C(=O)N1C [US12522634, Compound 7] (cyclo(A[dA][NMeL][NMeL][NMeV][MeBmt][Nva][X2][NMeL]V[NMeL]))
4 | 4.1 | 2.3 | C/C=C/C[C@@H](C)[C@@H](O)[C@H]1C(=O)N[C@@H](C(C)C)C(=O)N(C)[C@H](OCCN2CCOCC2)C(=O)N(C)[C@@H](CC(C)C)C(=O)N[C@@H](C(C)C)C(=O)N(C)[C@@H](CC(C)C)C(=O)N[C@@H](C)C(=O)N[C@H](C)C(=O)N(C)[C@@H](CC(C)C)C(=O)N(C)[C@@H](CC(C)C)C(=O)N(C)[C@@H](C(C)C)C(=O)N1C [US12522634, Compound 4] (cyclo(A[dA][NMeL][NMeL][NMeV][MeBmt]V[X1][NMeL]V[NMeL]))
